Values after ≈ are worked out from the molar mass of the structure shown.
What was measured:
Hexokinase-4 [1] = target: T1, Hexokinase-4 (Homo sapiens, UniProt P35557); assay: Activation of human recombinant glucokinase using 5 mM glucose as substrate in presence of NAD+ by glucose 6-phosphate dehydrogenase coupled assay
T1 sequence (P35557 whole entry): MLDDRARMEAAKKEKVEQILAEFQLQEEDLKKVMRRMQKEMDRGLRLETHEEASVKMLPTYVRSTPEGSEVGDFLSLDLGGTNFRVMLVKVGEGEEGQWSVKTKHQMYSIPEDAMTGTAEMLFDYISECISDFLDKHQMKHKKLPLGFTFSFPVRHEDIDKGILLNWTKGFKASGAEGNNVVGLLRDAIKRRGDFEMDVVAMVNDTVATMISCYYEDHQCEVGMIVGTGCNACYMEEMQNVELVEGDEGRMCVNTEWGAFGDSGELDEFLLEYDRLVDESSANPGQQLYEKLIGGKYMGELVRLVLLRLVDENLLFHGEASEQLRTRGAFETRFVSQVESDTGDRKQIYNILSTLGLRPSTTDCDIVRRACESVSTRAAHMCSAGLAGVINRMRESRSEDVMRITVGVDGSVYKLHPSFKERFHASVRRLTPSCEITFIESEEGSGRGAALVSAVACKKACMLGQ

Hexokinase-4 [2] = target: T1, Hexokinase-4; assay: Activation of human recombinant glucokinase using 5 mM glucose as substrate in presence of NAD+ and 4% HSA by glucose 6-phosphate dehydrogenase coupled assay
[3] = target: T2, Hexokinase-4 (Homo sapiens) (UniProt P35557); assay: Activation of human recombinant glucokinase assessed as enzyme affinity for glucose […] as substrate in presence of NAD+ by glucose 6-phosphate dehydrogenase coupled assay
T2 sequence (whole entry): T1 sequence (P35557 whole entry)

[4] = target: T2, Hexokinase-4 (Homo sapiens); assay: Activation of human recombinant glucokinase assessed as Vmax ratio using 0.16 to 80 mM of glucose as substrate in presence of NAD+ by glucose 6-phosphate dehydrogenase coupled assay relative to control
[5] = Clearance in rat at 0.5 mg/kg, iv; type: ADME, organism-based; conditions: in vivo
[6] = Solubility of the compound in PBS at pH 7.4; type: physicochemical; conditions: buffer
[7] = Fraction unbound in mouse plasma; type: ADME, cell-free
[8] = Fraction unbound in human plasma; type: ADME, cell-free
[9] = Intrinsic clearance in human liver microsomes; type: ADME, Microsome; conditions: read-out: CLH
Mus musculus [10] = assay: Antidiabetic activity in po dosed ob/ob mouse diabetic model assessed as decrease in blood glucose AUC administered 30 mins prior to oral glucose load measured at 30 to 120 mins by OGTT; type: functional, organism-based
Mus musculus [11] = assay: Antidiabetic activity in ob/ob mouse diabetic model assessed as decrease in blood glucose AUC at 30 mg/kg, po administered 30 mins prior to oral glucose load measured at 30 to 120 mins by OGTT; type: functional
[12] = Clearance in mouse at 1 mg/kg, iv; type: ADME, organism-based; conditions: in vivo
[13] = Volume of distribution at steady state in rat at 0.5 mg/kg, iv; type: ADME, organism-based; conditions: in vivo, read-out: Vdss
[14] = Volume of distribution at steady state in mouse at 1 mg/kg, iv; type: ADME, organism-based; conditions: in vivo, read-out: Vdss
[15] = Half life in rat at 0.5 mg/kg, iv; type: ADME, organism-based; conditions: in vivo
[16] = Half life in mouse at 1 mg/kg, iv; type: ADME, organism-based; conditions: in vivo
[17] = Oral bioavailability in rat at 2 mg/kg; type: ADME, organism-based; conditions: in vivo
[18] = Oral bioavailability in mouse at 5 mg/kg; type: ADME, organism-based; conditions: in vivo
[19] = AUC in rat at 2 mg/kg, po; type: ADME, organism-based; conditions: in vivo
[20] = AUC in mouse at 5 mg/kg, po; type: ADME, organism-based; conditions: in vivo
[21] = Fraction unbound in rat plasma; type: ADME, cell-free
Rattus norvegicus [22] = assay: Antidiabetic activity in po dosed Sprague-Dawley rat assessed as decrease in blood glucose AUC measured at 0.5 to 5 hrs by OGTT; type: functional, organism-based
Rattus norvegicus [23] = assay: Antidiabetic activity in Sprague-Dawley rat assessed as decrease in blood glucose AUC at 100 mg/kg, po measured at 0.5 to 5 hrs by OGTT; type: functional
[24] = Drug metabolism assessed as oxidation at THP ring site by metabolic ID study
Rattus norvegicus [25] = assay: Antidiabetic activity in Sprague-Dawley rat assessed as decrease in blood glucose AUC at 3 mg/kg, po measured at 0.5 to 5 hrs by OGTT; type: functional
Rattus norvegicus [26] = assay: Antidiabetic activity in Sprague-Dawley rat assessed as decrease in blood glucose AUC at 10 mg/kg, po measured at 0.5 to 5 hrs by OGTT; type: functional
Rattus norvegicus [27] = assay: Antidiabetic activity in Sprague-Dawley rat assessed as decrease in blood glucose AUC at 30 mg/kg, po measured at 0.5 to 5 hrs by OGTT; type: functional
[28] = target: T2, Hexokinase-4 (Homo sapiens); assay: Ratio of EC50 for activation of human recombinant glucokinase in presence of 4% HSA to EC50 for activation of human recombinant glucokinase in absence of 4% HSA

Row | SMILES | EC50 (Hexokinase-4 [1]) [nM] | EC50 (Hexokinase-4 [2]) [nM] | S0.5 [3] [mM] | Ratio [4] | also measured
1 | CNC(=O)Nc1cc(Oc2cncc(OC)c2)c(C2=CCOCC2)cn1 | 66 | 98 | 0.82 | 1 | clearance [5]: 41.7 mL/min/kg
2 | CNC(=O)Nc1cc(Oc2cncc(C)c2)c([C@H]2CCC[C@H](O)C2)cn1 | 72 | 97 | 0.51 | 1 | –
3 | CNC(=O)Nc1cc(Oc2cncc(OC)c2)c([C@@H]2CCCN(C)C2)cn1 | 2300 | 2900 | 0.73 | 0.78 | –
4 | CNC(=O)Nc1cc(Oc2cncc(C)c2)c([C@]2(O)C[C@H](O)C2)cn1 | 6700 | 7500 | 0.67 | 0.88 | –
5 | CNC(=O)Nc1cc(Oc2cncc(OC)c2)c([C@H]2COCC[C@@H]2F)cn1 | 170 | 180 | 0.85 | 1 | clearance [5]: 26.7 mL/min/kg
6 | CNC(=O)Nc1cc(Oc2cncc(OC)c2)c(C2CCOCC2)cn1 | 110 | 150 | 0.62 | 1 | clearance [5]: 46.7 mL/min/kg
7 | CNC(=O)Nc1cc(Oc2cncc(OC)c2)c([C@@H]2COCC[C@@H]2O)cn1 (relative stereo) | – | – | 0.66 | 0.83 | –
8 | CNC(=O)Nc1cc(Oc2cncc(OC)c2)c([C@@H]2CCCOC2)cn1 | 720 | 110 | 0.62 | 0.94 | –
9 | CNC(=O)Nc1cc(Oc2cncc(OC)c2)c(C2=CCCOC2)cn1 | 400 | 130 | 0.69 | 0.99 | clearance [5]: 38.3 mL/min/kg
10 | CNC(=O)Nc1cc(Oc2cncc(OC)c2)c([C@@H]2CCOC2)cn1 | 110 | 190 | 0.53 | 1.1 | –
11 | CNC(=O)Nc1cc(Oc2cncc(C)c2)c([C@H]2C[C@@H](O)C2)cn1 | 110 | 140 | 0.66 | 0.97 | solubility [6]: 332 µM (≈ 109 µg/mL); Fu [7]: 9.4%; Fu [8]: 25%; microsomal CLint [9]: < 14 µL/min/mg; inhibition (Mus musculus [10]): Dose-dependent effect; inhibition in vivo at 30 mg/kg (Mus musculus [11]): 32%; clearance [5]: 21.7 mL/min/kg; clearance [12]: 14.5 mL/min/kg; Vd [13]: 1.2 L/kg; Vd [14]: 0.65 L/kg; half-life [15]: 3 h; half-life [16]: 1.2 h; bioavailability [17]: 39%; bioavailability [18]: 20%; AUC ([19]; read-out: AUC): 1.84 µM·h; AUC [20]: 3.69 µM·h
12 | CNC(=O)Nc1cc(Oc2cncc(C)c2)c([C@H]2C[C@@H](CO)C2)cn1 | 40 | 70 | 0.57 | 0.82 | –
13 | CNC(=O)Nc1cc(Oc2cncc(OC)c2)c([C@H]2CCCOC2)cn1 | 160 | 220 | 0.65 | 1.1 | solubility [6]: 303 µM (≈ 109 µg/mL); Fu [21]: 28%; Fu [7]: 14%; Fu [8]: 16%; inhibition (Rattus norvegicus [22]): Dose-dependent effect; inhibition in vivo at 100 mg/kg (Rattus norvegicus [23]): 40%; CL [5]: 28.3 mL/min/kg; clearance [12]: 157 mL/min/kg; Vd [13]: 0.66 L/kg; Vd [14]: 3.3 L/kg; half-life [15]: 0.3 h; half-life [16]: 0.3 h; F [17]: 20%; bioavailability [18]: 5%; AUC [19]: 3.64 µM·h; AUC [20]: 0.13 µM·h; Drug metabolism [24]: Metabolite detected; inhibition in vivo at 3 mg/kg (Rattus norvegicus [25]): 3%; inhibition in vivo at 10 mg/kg (Rattus norvegicus [26]): 13%; inhibition in vivo at 30 mg/kg (Rattus norvegicus [27]): 20%
14 | CCOCCc1cnc(NC(=O)NC)cc1Oc1cncc(C)c1 | 98 | 110 | 0.59 | 0.84 | solubility [6]: 500 µM (≈ 165 µg/mL); Ratio EC50 [28]: 1 to 3
15 | CNC(=O)Nc1cc(Oc2cncc(C)c2)c([C@H]2C[C@@H]2CO)cn1 (relative stereo) | – | – | 0.58 | 1 | –
16 | CNC(=O)Nc1cc(Oc2cncc(C)c2)c(CCCCO)cn1 | 37 | 56 | 0.54 | 0.87 | solubility [6]: 500 µM (≈ 165 µg/mL); Ratio EC50 [28]: 1 to 3
17 | CNC(=O)Nc1cc(Oc2cncc(C)c2)c([C@H]2C[C@](C)(O)C2)cn1 | 160 | 300 | 0.7 | 0.71 | –
18 | CNC(=O)Nc1cc(Oc2cncc(C)c2)c([C@H]2C[C@@H]2C(C)(C)O)cn1 (relative stereo) | – | – | 0.62 | 0.87 | –
19 | CNC(=O)Nc1cc(Oc2cncc(C)c2)c(-c2ccc(OCC(C)(C)O)nc2)cn1 | – | – | – | – | clearance [5]: 30 mL/min/kg; Vd [13]: 2.7 L/kg; half-life [15]: 2.3 h; AUC ([19]; read-out: AUC): 2.7 µM·h
20 | CNC(=O)Nc1cc(Oc2cncc(C)c2)c([C@H]2C[C@@H](C(C)(C)O)C2)cn1 | 51 | 120 | 0.68 | 0.54 | –
21 | CNC(=O)Nc1cc(Oc2cncc(C)c2)c(CCO)cn1 | 130 | 330 | 0.6 | 0.9 | solubility [6]: 450 µM (≈ 136 µg/mL); Ratio EC50 [28]: 1 to 3
22 | CNC(=O)Nc1cc(Oc2cncc(C)c2)c([C@@H]2CC[C@@H](O)C2)cn1 | – | – | 0.47 | 0.94 | –
23 | CNC(=O)Nc1cc(Oc2cncc(C)c2)c(CCCO)cn1 | 66 | 100 | 0.55 | 0.96 | solubility [6]: 500 µM (≈ 158 µg/mL); Ratio EC50 [28]: 1 to 3
24 | CNC(=O)Nc1cc(Oc2cncc(C)c2)c(C(C)CO)cn1 (stereo not given) | 670 | 820 | 0.56 | 0.95 | Ratio EC50 [28]: 1 to 3
25 | CNC(=O)Nc1cc(Oc2cncc(OC)c2)c([C@H]2COCCC2(F)F)cn1 | 530 | 990 | 0.51 | 0.89 | –
26 | CNC(=O)Nc1cc(Oc2cncc(C)c2)c([C@H]2C[C@H](O)C2)cn1 | 72 | 110 | 0.55 | 0.92 | –
